We go through 18 molecules from ChEMBL document CHEMBL3352777, “Substituted thieno[2,3-b]thiophenes and related congeners: Synthesis, β-glucuronidase inhibition activity, crystal structure, and POM analyses” (Bioorg Med Chem, 2014).

Assay [1] concerns the target Carbonic anhydrase (Homo sapiens) (UniProt P00918+P43166+P00915+P07451+P23280+O43570+Q9ULX7+Q16790+P22748+Q8N1Q1+Q9Y2D0+P35218). Briefly: Inhibition of carbonic anhydrase (unknown origin) at 500 uM. The class given is protein assay.
The nature of the next assay: cells. The settings on record: Homo sapiens, PC-3, 48 h.
Assay [2] has as its target T1, Beta-glucuronidase (Homo sapiens) (UniProt P08236).
T1 sequence (whole entry): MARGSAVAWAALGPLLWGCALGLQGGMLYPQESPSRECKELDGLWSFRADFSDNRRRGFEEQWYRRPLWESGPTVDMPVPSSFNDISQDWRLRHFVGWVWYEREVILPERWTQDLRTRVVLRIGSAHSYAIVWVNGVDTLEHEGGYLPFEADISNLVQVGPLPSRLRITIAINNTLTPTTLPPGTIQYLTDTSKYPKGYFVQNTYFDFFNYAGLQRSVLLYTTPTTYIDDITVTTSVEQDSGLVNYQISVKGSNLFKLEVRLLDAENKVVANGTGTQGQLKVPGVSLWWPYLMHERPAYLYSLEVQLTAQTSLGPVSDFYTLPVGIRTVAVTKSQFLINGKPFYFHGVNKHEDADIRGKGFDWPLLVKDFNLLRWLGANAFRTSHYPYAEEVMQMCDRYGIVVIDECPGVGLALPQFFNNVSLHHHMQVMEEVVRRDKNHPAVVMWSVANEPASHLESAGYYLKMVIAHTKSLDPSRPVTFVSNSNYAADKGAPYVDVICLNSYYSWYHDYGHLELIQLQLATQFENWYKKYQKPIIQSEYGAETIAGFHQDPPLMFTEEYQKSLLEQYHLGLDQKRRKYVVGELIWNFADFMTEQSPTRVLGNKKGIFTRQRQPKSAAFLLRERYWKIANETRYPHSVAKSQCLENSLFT
Description: Inhibition of beta-glucuronidase (unknown origin) at 500 uM using p-nitrophenyl-beta-D-glucuronide substrate incubated for 30 mins by spectrophotometry.

Another assay is filed under the species Homo sapiens. Briefly: Inhibition of alpha-chymotrypsin (unknown origin) using N-succinyl-L-phenylalanine-p-nitroanilide substrate at 500 uM.
Assay [3] can be described thus: Inhibition of buttermilk xanthine oxidase (unknown origin) incubated for 10 mins by spectrophotometry.
Assay [4] is described as follows: Inhibition of buttermilk xanthine oxidase (unknown origin) at 500 uM incubated for 10 mins by spectrophotometry.
The next assay has as its target Carbonic anhydrase. Description: Inhibition of carbonic anhydrase (unknown origin). The assay is classed as protein assay, Homo sapiens.
Assay [5] can be described thus: Inhibition of alpha-chymotrypsin (unknown origin) using N-succinyl-L-phenylalanine-p-nitroanilide substrate. Details: species or system Homo sapiens.

Description for cells: Cytotoxic activity against human PC3 cells after 48 hrs by MTT assay

As usually defined, the inhibition is the relative decrease from the control value, in per cent. The low end stands for little suppression, the high end for strong suppression. By IC50 is commonly meant the midpoint of a concentration-inhibition curve. High values mean lower potency, low ones higher potency. The molecule `CC(=O)c1ccc(-c2sc3sc(-c4ccc(C(C)=O)c(C)n4)c(-c4ccccc4)c3c2C)nc1C` gave an inhibition in assay [1] of less than 50%. This molecule showed a concentration for half-maximal inhibition (IC50) in the assay “cells” of more than 30 µM.
As to `CCOC(=O)c1nn(-c2ccccc2)cc1C(=O)c1sc2sc(C(=O)c3cn(-c4ccccc4)nc3C(=O)OCC)c(-c3ccccc3)c2c1C`, the half-inhibitory concentration (IC50) in the assay “cells” is more than 30 µM. Besides, the inhibition (in assay [2]; in the assay filed under Homo sapiens) was less than 50% throughout.
In turn, `COc1cccc2c1C(=O)c1c(O)c3c(c(O)c1C2=O)C[C@@](O)(C(=O)CO)C[C@@H]3O[C@H]1C[C@H](N)[C@H](O)[C@H](C)O1` [DOXORUBICIN] displayed a 50% inhibitory concentration (IC50) in “cells” of 0.912 µM.
In the case of `Cc1c(C(=O)c2cc(C(=O)O)c(=O)[nH]n2)sc2sc(C(=O)c3cc(C(=O)O)c(=O)[nH]n3)c(-c3ccccc3)c12`, the inhibition (in assay [1]; in the assay listed under Homo sapiens) was less than 50% throughout. The 50% inhibitory concentration (IC50) is more than 30 µM in the assay “cells” and 121 µM in assay [3].
As to `Cc1c(C(=O)/C=C/N(C)C)sc2sc(C(=O)c3ccc(-c4sc5sc(C(=O)/C=C/N(C)C)c(-c6ccccc6)c5c4C)nc3)c(-c3ccccc3)c12`, the inhibition (in assay [1]; in the assay listed under Homo sapiens) was less than 50% throughout. Moreover, the IC50 in “cells” was more than 30 µM.
In turn, `Cc1c(-c2ccc(C#N)c(=O)[nH]2)sc2sc(-c3ccc(C#N)c(=O)[nH]3)c(-c3ccccc3)c12` came in with an inhibition in assay [4] of less than 50%. In addition, the 50% inhibitory concentration (IC50) against Carbonic anhydrase turned out to be 270.13 µM.
The molecule `Cc1c(C(=O)/C=C/NO)sc2sc(C(=O)/C=C/NO)c(-c3ccccc3)c12` had a half-inhibitory concentration (IC50) in the assay “cells” of more than 30 µM.
`Oc1ncnc2[nH]ncc12` [ALLOPURINOL] came in with an IC50 in assay [3] of 2 µM.
On to `Cc1c(C(=O)/C=C/N(C)C)sc2sc(C(=O)/C=C/N(C)C)c(-c3ccccc3)c12`, for which the inhibition (in assay [4]; in assay [1]; in assay [2]; in the assay listed under Homo sapiens) was less than 50% each time. Besides, the half-inhibitory concentration (IC50) in “cells” was more than 30 µM.
As to `Cc1c(C(/C=C/N(C)C)=C(C#N)C#N)sc2sc(C(/C=C/N(C)C)=C(C#N)C#N)c(-c3ccccc3)c12`, the IC50 is 202 µM in assay [5] and more than 30 µM in the assay “cells”.
Consider `Cc1c(-c2ccc(C(=O)O)c(=O)[nH]2)sc2sc(-c3ccc(C(=O)O)c(=O)[nH]3)c(-c3ccccc3)c12`, for which the inhibition (in assay [4]; in assay [1]; in the assay listed under Homo sapiens) was less than 50% in each case. The molecule also yielded a half-maximal inhibitory concentration (IC50) in “cells” of more than 30 µM.
Molecule `Cc1c(C(=O)c2cc(C#N)c(=N)n(-c3ccccc3)n2)sc2sc(C(=O)c3cc(C#N)c(=N)n(-c4ccccc4)n3)c(-c3ccccc3)c12` had an IC50 in “cells” of 2.61 µM.
For `CC(=C(C#N)C#N)c1sc2sc(C(C)=C(C#N)C#N)c(-c3ccccc3)c2c1C`, the inhibition (in assay [4]; in the assay listed under Homo sapiens) was less than 50% each time. The figures for the IC50 at Carbonic anhydrase and in the assay “cells” were 441.72 µM and more than 30 µM, respectively.
As to `CCOc1nc(-c2sc3sc(-c4ccc(C#N)c(OCC)n4)c(-c4ccccc4)c3c2C)ccc1C#N`, the inhibition (in assay [1]; in the assay filed under Homo sapiens) was less than 50% throughout. Moreover, the 50% inhibitory concentration (IC50) in “cells” was more than 30 µM; in assay [3] it was 14.4 µM.
Consider `CCOC(/C=C/C(=O)c1sc2sc(C(=O)/C=C/C(OCC)(OCC)OCC)c(-c3ccccc3)c2c1C)(OCC)OCC`, for which the inhibition (in assay [1]; in the assay filed under Homo sapiens) was less than 50% each time. In the assay “cells”, this molecule gave a half-maximal inhibitory concentration (IC50) of more than 30 µM.
Regarding `Cc1c(C(=O)/C(C=O)=N/Nc2ccccc2)sc2sc(C(=O)/C(C=O)=N/Nc3ccccc3)c(-c3ccccc3)c12`, the inhibition (in assay [4]; in assay [1]; in the assay filed under Homo sapiens) was less than 50% each time. For the same molecule, the IC50 in the assay “cells” stood at 13.8 µM.
In assay [1], `Cc1c(/C(=C/C=C(\C#N)C(N)=O)N(C)C)sc2sc(/C(=C/C=C(\C#N)C(N)=O)N(C)C)c(-c3ccccc3)c12` came in with an inhibition of less than 50%. For the same molecule, the figures for the IC50 (in the assay “cells”; in assay [3]) were more than 30 µM and 43.1 µM, respectively.
Consider `CC(C)C[C@H](NC(=O)[C@@H](NC(=O)N[C@@H](Cc1ccccc1)C(=O)O)C1CCNC(=N)N1)C(=O)N[C@H](C=O)Cc1ccccc1` (stereo partly drawn) [CHYMOSTATIN], for which, in assay [5], the midpoint of inhibition, the IC50, lay at 5.7 µM.
